US11802111B2, “Cyclobutyl amide monoacylglycerol lipase modulators” (Janssen Pharmaceutica NV, priority 2020, dated 2023)

The compounds below were run against human MGL from HeLa cells (Homo sapiens (Human), UniProt Q99685) (assay: MGL in vitro activity assay ([glycerol-1,3-3H]-oleoyl glycerol hydrolysis, activated carbon filtration)). Conditions: 300 nM [Glycerol-1,3-3H]-oleoyl glycerol, one hour.
Format: biochemical
Procedure, shortened: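 Activity measured as tritium in the flow-through after activated carbon filtration of a 1 h reaction containing 300 nM 3H-oleoyl glycerol, compound and HeLa-derived human MGL. Compounds screened at 10 μM; IC50 series start at an empirically chosen highest concentration.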

human MGL from HeLa cells, sequence (Q99685 whole entry): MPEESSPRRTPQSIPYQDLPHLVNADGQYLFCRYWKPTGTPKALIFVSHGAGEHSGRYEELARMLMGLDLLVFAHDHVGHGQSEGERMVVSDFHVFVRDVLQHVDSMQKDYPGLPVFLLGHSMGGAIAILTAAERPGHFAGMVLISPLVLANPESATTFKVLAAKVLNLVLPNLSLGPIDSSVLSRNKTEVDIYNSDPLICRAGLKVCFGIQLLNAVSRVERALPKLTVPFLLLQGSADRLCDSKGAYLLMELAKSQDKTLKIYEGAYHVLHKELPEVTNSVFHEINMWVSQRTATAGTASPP

IC50 [nM] | SMILES
2.4 | Cc1nc(OC2CCC3(CC2)CN(C(=O)[C@H]2C[C@@](C)(O)C2)C3)ccc1C(F)(F)F [Example 448, ((1s,3s)-3-Hydroxy-3-methylcyclobutyl)(7-((6-methyl-5-(trifluoromethyl)pyridin-2-yl)oxy)-2-azaspiro[3.5]nonan-2-yl)methanone]
12 | Cc1ccc(C2CCC3(CC2)CN(C(=O)[C@H]2C[C@@](C)(O)C2)C3)cc1C [Example 134, (7-(3,4-Dimethylphenyl)-2-azaspiro[3.5]nonan-2-yl)((1s,3s)-3-hydroxy-3-methylcyclobutyl)methanone]
136 | Cc1ccc(OC2CCC3(C2)CN(C(=O)[C@H]2C[C@@](C)(O)C2)C3)cc1C1CC1 (mixture of isomers) [Example 332, (rac)-(6-(3-Cyclopropyl-4-methylphenoxy)-2-azaspiro[3.4]octan-2-yl)((1s,3s)-3-hydroxy-3-methylcyclobutyl)methanone]
10 | C[C@]1(O)C[C@@H](C(=O)N2CC3(CC[C@@H](c4ccc(OC(F)(F)F)cc4)C3)C2)C1 (stereo in doubt) [Example 53, ((1s,3*S)-3-Hydroxy-3-methylcyclobutyl)((*R)-6-(4-(trifluoromethoxy)phenyl)-2-azaspiro[3.4]octan-2-yl)methanone]
1 | CC(C)Oc1nc(CC2CC3(C2)CN(C(=O)[C@H]2C[C@@](C)(O)C2)C3)ccc1C(F)(F)F [Example 282, ((1s,3s)-3-Hydroxy-3-methylcyclobutyl)(6-((6-isopropoxy-5-(trifluoromethyl)pyridin-2-yl)methyl)-2-azaspiro[3.3]heptan-2-yl)methanone]
4.2 | C[C@]1(O)C[C@@H](C(=O)N2CC3(CC(Cc4ccc(C(F)(F)F)cc4)C3)C2)C1 [Example 195, ((1s,3s)-3-Hydroxy-3-methylcyclobutyl)(6-(4-(trifluoromethyl)benzyl)-2-azaspiro[3.3]heptan-2-yl)methanone]
34 | Cc1cc(C)cc([C@H]2CC[C@@]3(CC2)CN(C(=O)[C@H]2C[C@@](C)(O)C2)[C@H]3C)c1 (stereo in doubt) [Example 350, ((1*S,4s,7*R)-7-(3,5-Dimethylphenyl)-1-methyl-2-azaspiro[3.5]nonan-2-yl)((1s,3*R)-3-hydroxy-3-methylcyclobutyl)methanone]
6.8 | COc1ccc(Cl)c(OC2CCC3(CC2)CN(C(=O)[C@H]2C[C@@](C)(O)C2)C3)n1 [Example 462, (7-((3-Chloro-6-methoxypyridin-2-yl)oxy)-2-azaspiro[3.5]nonan-2-yl)((1s,3s)-3-hydroxy-3-methylcyclobutyl)methanone]
20 | Cc1cc(CC2CC3(C2)CN(C(=O)[C@H]2C[C@@](C)(O)C2)C3)cc2c1cnn2C [Example 300, (6-((1,4-Dimethyl-1H-indazol-6-yl)methyl)-2-azaspiro[3.3]heptan-2-yl)((1s,3s)-3-hydroxy-3-methylcyclobutyl)methanone]
105 | COc1cc(C2CCC3(C2)CN(C(=O)[C@H]2C[C@@](C)(O)C2)C3)ccc1Cl (mixture of isomers) [Example 87, (rac)-(6-(4-Chloro-3-methoxyphenyl)-2-azaspiro[3.4]octan-2-yl)((1s,3s)-3-hydroxy-3-methylcyclobutyl)methanone]
15 | Cc1cc(C(F)(F)F)ccc1OC1CCC2(C1)CN(C(=O)[C@H]1C[C@@](C)(O)C1)C2 (mixture of isomers) [Example 255, (rac)-((1s,3s)-3-Hydroxy-3-methylcyclobutyl)(6-(2-methyl-4-(trifluoromethyl)phenoxy)-2-azaspiro[3.4]octan-2-yl)methanone]
17 | CN(C)c1cc(C2CCC3(CC2)CN(C(=O)[C@H]2C[C@@](C)(O)C2)C3)ccc1C(F)(F)F [Example 115, (7-(3-(Dimethylamino)-4-(trifluoromethyl)phenyl)-2-azaspiro[3.5]nonan-2-yl)((1s,3s)-3-hydroxy-3-methylcyclobutyl)methanone]
1390 | C[C@]1(O)C[C@@H](C(=O)N2CC3(CC(Cc4ccccn4)C3)C2)C1 [Example 167, ((1s,3s)-3-Hydroxy-3-methylcyclobutyl)(6-(pyridin-2-ylmethyl)-2-azaspiro[3.3]heptan-2-yl)methanone]
41 | CCOc1cccc(C2CCC3(CC2)CN(C(=O)[C@H]2C[C@@](C)(O)C2)C3)c1 [Example 132, (7-(3-Ethoxyphenyl)-2-azaspiro[3.5]nonan-2-yl)((1s,3s)-3-hydroxy-3-methylcyclobutyl)methanone]
122 | CC(C)(C)c1ccc(OC2CCC3(C2)CN(C(=O)[C@H]2C[C@@](C)(O)C2)C3)cc1 (mixture of isomers) [Example 240, (rac)-(6-(4-(tert-Butyl)phenoxy)-2-azaspiro[3.4]octan-2-yl)((1s,3s)-3-hydroxy-3-methylcyclobutyl)methanone]
0.1 | Cc1cc(C(F)(F)F)c(C)nc1OC1CCC2(CC1)CN(C(=O)[C@H]1C[C@@](C)(O)C1)C2 [Example 466, (7-((3,6-Dimethyl-5-(trifluoromethyl)pyridin-2-yl)oxy)-2-azaspiro[3.5]nonan-2-yl)((1s,3s)-3-hydroxy-3-methylcyclobutyl)methanone]
15 | Cc1cc(CC2CC3(C2)CN(C(=O)[C@H]2C[C@@](C)(O)C2)C3)ccc1F [Example 228, (6-(4-Fluoro-3-methylbenzyl)-2-azaspiro[3.3]heptan-2-yl)((1s,3s)-3-hydroxy-3-methylcyclobutyl)methanone]
